In publication PMC10812672, “Short Antimicrobial Peptide Derived from the Venom Gland Transcriptome of Pamphobeteus verdolaga Increases Gentamicin Susceptibility of Multidrug-Resistant Klebsiella pneumoniae” (Antibiotics, 2023):
Ends that are not written are not given here.

Legend:
[1] = tested on: S. aureus ATCC® 29213; format: cell-based, Staphylococcus aureus; conditions: CLSI broth microdilution, Mueller-Hinton broth, peptide 30 µM, ~6 × 10^6 CFU/mL, 24 h 37 °C, OD600; triplicate, three independent assays; NA = no activity
Procedure: (§1) Activity screening was conducted using the broth microdilution method at a fixed peptide concentration of 30 µM against E. coli ATCC® 8739 and 25922, as well as S. aureus ATCC® 6538 and 29213. The bacterial density used for screening was approximately 6 × 10^6 CFU/mL [30]. Peptide activity measurements were conducted in terms of the growth inhibition percentage. No dose-response curves were generated during the screening phase as a resource optimization strategy in the initial activity evaluation. […] For S. aureus ATCC® 6538 and S. aureus ATCC® 29213, growth inhibition ranged from 0% to 140% and 0% to 98%, respectively (Table 1).
(§2) The evaluation of the antimicrobial activity of the peptides was conducted using the CLSI’s broth microdilution method for bacterial susceptibility testing. For the screening phase, peptides were evaluated at a single 30 μM concentration, in triplicate and in three independent assays, against the E. coli ATCC® 8739, E. coli ATCC® 25922, S. aureus ATCC® 6538, or S. aureus ATCC® 29213 reference USP and CLSI strains. For the determination of MIC, MBC, or IC50, peptides or antibiotics were evaluated in concentrations between 1.56–200 µM. These evaluations were conducted in triplicate and in three independent assays, against the E. coli ATCC® 25922, S. aureus ATCC® 29213, E. faecalis ATCC® 49532, P. aeruginosa ATCC® 9027, and K. pneumoniae ATCC® BAA-1705, or the clinically isolated MDR strain. In detail, 1 mL of a glycerol stock solution of the ATCC® or clinically isolated bacterial strain was added to 9 mL of Mueller-Hinton Broth and incubated for 18 h, 180 rpm and 37 °C (Incubator 1000, Heidolph Instruments, Schwabach, Germany). After the incubation, 1 mL of the previous solution was transferred to a new recipient containing 9 mL of fresh Mueller-Hinton broth and incubated for 4 h, 180 rpm and 37 °C (Incubator 1000, Heidolph Instruments, Schwabach, Germany). During the second incubation, the peptides or the antibiotics were dissolved in PBS pH 7.20 in concentrations between 19.53–2500 µM (MC5 Micro Balance, Sartorius AG, Göttingen, Germany). An amount of 10 µL of either peptide or antibiotic was dispensed in triplicate in 96-well flat bottom culture plates, along with 10 µL of PBS (Negative activity control), BTM-P1 (Positive activity control), or 10 µL of Mueller-Hinton broth (Blank); then, 110 µL of Mueller-Hinton broth was poured in all wells. Following this, the bacteria were suspended in Mueller-Hinton broth up to a concentration of approximately 1.50 × 10^8 CFU/mL, as measured by optical density at 600 nm between 0.06 to 0.11 (0.5 McFarland standard), in a Multiskan SkyHigh spectrophotometer (ThermoFisher Scientific, Waltham, MA, USA). Amounts of 5 µL of the 1.50 × 10^8 CFU/mL suspension were added to each well (except for the blank) for a final well concentration of approximately 6 × 10^6 CFU/mL. The plate was incubated for 24 h at 37 °C (BE 500, Memmert GmbH, Büchenbach, Germany) and optical density was measured at 600 nm in a Multiskan SkyHigh spectrophotometer (ThermoFisher Scientific, Waltham, MI, USA). Following the measurement of optical density, plates were visually inspected to determine the MIC. Subsequently, 100 µL of the concentration associated to the MIC and 100 µL of the next higher concentration were added to Petri dishes containing Mueller-Hinton Agar. The dishes were then incubated for 24 h at 37 °C (BE 500, Memmert GmbH, Büchenbach, Germany). After incubation, the Petri dishes were visually inspected, and the MBC was determined in the absence of growth. IC50 values were interpolated from regressions with correlation values above 0.70. Growth inhibition percentages were calculated as follows: Growth inhibition %=1−AbsPEPTIDE or ANTIBIOTIC−Median AbsBLANK/Median AbsPBS−Median AbsBLANK×100

[2] = tested on: S. aureus ATCC® 6538; format: cell-based, Staphylococcus aureus; conditions: CLSI broth microdilution, Mueller-Hinton broth, peptide 30 µM, ~6 × 10^6 CFU/mL, 24 h 37 °C, OD600; triplicate, three independent assays; NA = no activity
Procedure: as §1, §2

[3] = tested on: E. coli ATCC® 25922; format: cell-based, Escherichia coli; conditions: CLSI broth microdilution, Mueller-Hinton broth, peptide 30 µM, ~6 × 10^6 CFU/mL, 24 h 37 °C, OD600; triplicate, three independent assays; NA = no activity
Procedure: as §1, §2

[4] = tested on: E. coli ATCC® 8739; format: cell-based, Escherichia coli; conditions: CLSI broth microdilution, Mueller-Hinton broth, peptide 30 µM, ~6 × 10^6 CFU/mL, 24 h 37 °C, OD600; triplicate, three independent assays; NA = no activity
Procedure: as §1, §2

[5] = tested on: E. coli ATCC® 25922; format: cell-based, Escherichia coli; conditions: for MIC: 1.56–200 µM, visual inspection, triplicate, three independent assays; for MIC / MBC: 24 h 37 °C; for MBC: plating on Mueller-Hinton agar, absence of growth
Procedure: (§3) The nine AMPs identified in the initial screening were evaluated at concentrations between 1.56–200 µM, against E. coli ATCC® 25922, S. aureus ATCC® 29213, E. faecalis ATCC® 49532, P. aeruginosa ATCC® 9027, and K. pneumoniae ATCC® BAA-1705 (Supplementary Figures S2–S6). […] Only PvAMP66 and PvAMP172 reached the MBC for S. aureus at 50 µM and 100 µM, respectively (Table 2).
as §2

[6] = tested on: P. aeruginosa ATCC® 9027; format: cell-based, Pseudomonas aeruginosa; conditions: for MIC: 1.56–200 µM, 24 h 37 °C, visual inspection, triplicate, three independent assays; for MBC: plating on Mueller-Hinton agar, absence of growth
Procedure: as §3, §2

[7] = tested on: multidrug-resistant (MDR) strain of K. pneumoniae, clinical isolate; assay: microbe, parasite or virus in culture; format: cell-based, Klebsiella pneumoniae; conditions: for inhibition at 100 µM: read-out: maximum growth inhibition
Procedure: A multidrug-resistant (MDR) strain of K. pneumoniae was identified and isolated from a tertiary-level hospital in Medellin, Colombia, using the VITEK-2 system (bioMérieux, Marcy-l’Étoile, France). The MDR strain was evaluated against several antibiotics at concentrations of 1.56–100 μM. […] In contrast, the strain was susceptible to doxycycline (Supplementary Figure S7g) and chloramphenicol (Supplementary Figure S7h), with MICs of 50 μM and 100 µM, respectively (Table 3). […] All of P. verdolaga’s AMPs were evaluated against the clinical isolate at concentrations of 1.56–200 µM (Supplementary Figure S8). […] A growth inhibition kinetic assay was conducted. […] All of P. verdolaga’s peptides at 100 μM induced morphological changes in the MDR K. pneumoniae, indicating membrane interactions, even though no significant inhibition was observed (Supplementary Figure S9).
as §2, with “Growth inhibition percentages were calculated as follows: Growth inhibition %=1−AbsPEPTIDE or ANTIBIOTIC−Median AbsBLANK/Median AbsPBS−Median AbsBLANK×100” left out

LLTGIKS-NH2 [PvAMP30] was tested, and the inhibition [1] was 7.34 ± 10.3% and the “S. aureus ATCC® 6538 (Inhibition %)” value [2] was 35.52 ± 7.29 %.

In the case of “CRRVCYKNR CVTYCRG (disulfide) [PvAMP169, predicted P. verdolaga AMP]”, the “E. coli ATCC® 25922 (Inhibition %)” value [3] is reported as 55.69 ± 4.65 % and the inhibition [4] is reported as 13.6 ± 5.92%.

With “QCRKLCFRNRCLTYCRGRG-NH2 (disulfide (positions not given here)) [PvAMP183, predicted P. verdolaga AMP]” the “E. coli ATCC® 25922 (Inhibition %)” value [3] was 64.66 ± 1.26 %, the “E. coli ATCC® 8739 (Inhibition %)” value [4] was 48.26 ± 2.41 % and the inhibition [1] was 4.71 ± 21.9%. The “S. aureus ATCC® 6538 (Inhibition %)” value [2] was 47.36 ± 1.27 %, the MIC [5] was 25 µM and the IC50 ([5]; growth inhibition OD600, interpolated from regression, 95% confidence interval in parentheses, read-out: IC50) was 26.9 µM. It also gave an MBC [5] of 50 µM, an MIC [6] of 50 µM and an IC50 ([6]; growth inhibition OD600, 95% confidence interval in parentheses) of 48.3 µM. It also gave an MBC [6] of 100 µM.

In the case of FSGNKLLPG-NH2 [PvAMP81], the “E. coli ATCC® 25922 (Inhibition %)” value [3] is reported as 31.88 ± 2.18 % and the inhibition [4] is reported as 8.57 ± 4.46%.

SLWGMWR-NH2 [PvAMP7] was tested, and the “E. coli ATCC® 25922 (Inhibition %)” value [3] was 18.21 ± 2.54 %, the “E. coli ATCC® 8739 (Inhibition %)” value [4] was 26.74 ± 0.68 % and the “S. aureus ATCC® 29213 (Inhibition %)” value [1] was 23.66 ± 3.34 %. The “S. aureus ATCC® 6538 (Inhibition %)” value [2] was 37.89 ± 1.50 % and the MIC [5] was 200 µM.

With LLSKIFG-NH2 [PvAMP16] the inhibition [1] was 13.8 ± 6.48% and the “S. aureus ATCC® 6538 (Inhibition %)” value [2] was 42.06 ± 4.29 %.

With “RSVLKAHCRICRRRG-NH2 (disulfide) [PvAMP164, predicted P. verdolaga AMP]” the “E. coli ATCC® 25922 (Inhibition %)” value [3] was 30.10 ± 3.90 %, the “E. coli ATCC® 8739 (Inhibition %)” value [4] was 20.51 ± 4.31 % and the “S. aureus ATCC® 29213 (Inhibition %)” value [1] was 12.25 ± 1.29 %. For the same compound, the “S. aureus ATCC® 6538 (Inhibition %)” value [2] was 24.49 ± 10.18 %, the MIC [5] was 200 µM and the MBC [5] was 200 µM. For the same compound, the MIC [6] was 100 µM and the MBC [6] was 100 µM.

Compound `Cc1onc(-c2c(Cl)cccc2Cl)c1C(=O)N[C@@H]1C(=O)N2[C@@H]1SC(C)(C)[C@@H]2C(=O)O` [dicloxacillin] has an inhibition at 100 µM ([7]; Klebsiella pneumoniae) of at most 20%.

Work on `C[C@H]1c2cccc(O)c2C(=O)C2=C(O)[C@]3(O)C(=O)C(C(N)=O)=C(O)[C@@H](N(C)C)[C@@H]3[C@@H](O)[C@@H]21` [Doxycycline, doxycycline] yielded an IC50 ([7]; Klebsiella pneumoniae) of 38.1 µM, an MIC ([7]; Klebsiella pneumoniae, 24 h, MDR K. pneumoniae clinical isolate, peptides 1.56–200 µM, antibiotics 1.56–100 µM, 24 h 37 °C) of 50 µM and an MIC ([7]; Klebsiella pneumoniae, MDR K. pneumoniae clinical isolate) of 3.21 µg/mL. For the same compound, the “Classification at 10^6 CFU/mL” value ([7]; MDR K. pneumoniae clinical isolate, CLSI classification) was “Susceptible”.

In the case of FLGKNLG-NH2 [PvAMP15], the inhibition [1] is reported as 27.5 ± 29.7% and the “S. aureus ATCC® 6538 (Inhibition %)” value [2] is reported as 43.62 ± 10.56 %.

`CN(C)[C@@H]1C(O)=C(C(N)=O)C(=O)[C@@]2(O)C(O)=C3C(=O)c4c(O)cccc4[C@@](C)(O)[C@H]3[C@H](O)[C@@H]12` [oxytetracycline] gave an inhibition at 100 µM ([7]; Klebsiella pneumoniae) of at most 20%.

With “YRARCVIYC-NH2 (disulfide) [PvAMP69, predicted P. verdolaga AMP]” the “E. coli ATCC® 25922 (Inhibition %)” value [3] was 19.08 ± 0.12 %, the inhibition [4] was 1.75 ± 9.78% and the “S. aureus ATCC® 29213 (Inhibition %)” value [1] was 29.81 ± 3.31 %. The “S. aureus ATCC® 6538 (Inhibition %)” value [2] was 32.32 ± 7.00 %, the MIC [5] was 200 µM and the MBC [5] was 200 µM.

For SLFKFLA-NH2 [PvAMP8], the inhibition [1] was 11.9 ± 8.93% and the “S. aureus ATCC® 6538 (Inhibition %)” value [2] was 47.95 ± 3.62 %.

With ILKPFMLRR-NH2 [PvAMP84] the inhibition [3] was 11.3 ± 3.72% and the “E. coli ATCC® 8739 (Inhibition %)” value [4] was 24.29 ± 6.74 %.

`[H]/N=C(/N)N[C@H]1[C@H](O)[C@@H](O)[C@H](O[C@@H]2O[C@@H](C)[C@](O)(C=O)[C@H]2O[C@@H]2O[C@@H](CO)[C@H](O)[C@@H](O)[C@@H]2NC)[C@@H](N/C(N)=N\[H])[C@@H]1O` [streptomycin] gave an inhibition at 100 µM ([7]; Klebsiella pneumoniae) of at most 20%.
